“And” between values parts separate entries of the source, which are not always exact repeats. Equal values may be shown once. Read-outs that look alike come from different tables or passages of the source.
Tested on: HIV-1
Details: for Change versus baseline in log10 viral load (NC = F, non-VF censored), Mean (SE) / Virologic response rate (TLOVR, non-VF censored) defined as a decrease ≧1.0 log10 in plasma viral load versus baseline / Virologic response rate (TLOVR, non-VF censored) defined as a viral load <50 HIV-1 RNA copies/mL / mean changes versus baseline in viral load (size of decrease): Week 24; for mean changes versus baseline in viral load (size of decrease): E428G and/or R452S at baseline
Method: Virologic response was defined as viral load ≦50 copies/mL at week 24.
GAG genotypic analysis was performed on virus isolates from subjects of pooled trials.
Virological failures were defined using the TLOVR non-virologic failure (VF)-censored algorithm in which the responses at time points after discontinuation are not imputed (i.e. left missing) for patients who drop for reasons other than virologic failures. Using this imputation, patients that drop out for reasons other than viro logic failure are not automatically considered as rebounders or non-responders.
Genotypic analyses were performed by automated population-based sequencing. Sequence data were aligned to the wildtype HIV-1/HXB2CG reference and reported as amino acid changes along GAG and PR. Genotypic mixtures (a combination of different amino acids at 1 position) were reported. Amino acids were presented with their one letter code. Mutations in the 5 PR cleavage sites in the GAG region, encompassing the amino acids 128-137 (p17/p24), 359-368 (p24/p2), 373-382 (p2/p7), 428-437 (p7/p1), and 444-453 (p1/p6), were reported.
Virologic response was defined using the TLOVR non-VF censored algorithm eliminating patients who had no chance to respond (discontinuation before Week 16). Several endpoints to assess virologic response, e.g. proportion of responders with confirmed 1.0 log10 decrease in viral load versus baseline, change in viral load from baseline (NC=F), and proportion of responders with viral load <50 or <400 HIV-1 RNA copies/mL were evaluated.
Virologic response was defined using the TLOVR, non-VF censored algorithm eliminating patients who had no chance to respond (discontinuation before Week 16), resulting in 445 subjects included in the analysis. To assess outcome, several endpoints including the primary endpoint (proportion of responders with confirmed 1.0 log10 decrease in viral load at Week 24), change in viral load from baseline at Week 24 and proportion of responders with viral load <50 HIV-1 RNA copies/mL at Week 24 were evaluated.
Only mutations present at baseline in 10 subjects of the no/non-naïve ENF group (N=327) were taken into consideration.

[1] = E428G (p7/p1) at baseline, All subjects
[2] = E428G (p7/p1) at baseline, naïve ENF
[3] = R452S (p1/p6) at baseline, All subjects
[4] = R452S (p1/p6) at baseline, naïve ENF

darunavir/ritonavir [DRV/rtv]
Change versus baseline in log10 viral load (NC = F, non-VF censored), Mean (SE) [1]: −1.07 (0.298) log10 HIV-1 RNA copies/mL | Virologic response rate (TLOVR, non-VF censored) defined as a decrease ≧1.0 log10 in plasma viral load versus baseline [1]: 9 (47.4) % | Virologic response rate (TLOVR, non-VF censored) defined as a viral load <50 HIV-1 RNA copies/mL [1]: 3 (15.8) % | Change versus baseline in log10 viral load (NC = F, non-VF censored), Mean (SE) [2]: −1.72 (0.763) log10 HIV-1 RNA copies/mL | Virologic response rate (TLOVR, non-VF censored) defined as a decrease ≧1.0 log10 in plasma viral load versus baseline [2]: 3 (75.0) % | Virologic response rate (TLOVR, non-VF censored) defined as a viral load <50 HIV-1 RNA copies/mL [2]: 1 (25.0) % | Change versus baseline in log10 viral load (NC = F, non-VF censored), Mean (SE) (E428G (p7/p1) at baseline, no/non-naïve ENF): −0.89 (0.318) log10 HIV-1 RNA copies/mL | mean changes versus baseline in viral load (size of decrease) (no/non-naïve ENF): < 1.0 log10 and > 0.5 log10 | mean changes versus baseline in viral load (size of decrease) (other subgroups (All, naïve ENF)): > 1.0 log10 | Virologic response rate (TLOVR, non-VF censored) defined as a viral load <50 HIV-1 RNA copies/mL (L449P (p1/p6) at baseline, All subjects): 12 (36.4) % | Virologic response rate (TLOVR, non-VF censored) defined as a viral load <50 HIV-1 RNA copies/mL (L449P (p1/p6) at baseline, naïve ENF): 6 (50.0) % | Change versus baseline in log10 viral load (NC = F, non-VF censored), Mean (SE) (Overall, All subjects): −1.84 (0.061) log10 HIV-1 RNA copies/mL | Virologic response rate (TLOVR, non-VF censored) defined as a decrease ≧1.0 log10 in plasma viral load versus baseline (Overall, All subjects): 315 (70.8) % | Virologic response rate (TLOVR, non-VF censored) defined as a viral load <50 HIV-1 RNA copies/mL (Overall, All subjects): 207 (46.5) % | Change versus baseline in log10 viral load (NC = F, non-VF censored), Mean (SE) (Overall, naïve ENF): −2.33 (0.109) log10 HIV-1 RNA copies/mL | Virologic response rate (TLOVR, non-VF censored) defined as a decrease ≧1.0 log10 in plasma viral load versus baseline (Overall, naïve ENF): 102 (86.4) % | Virologic response rate (TLOVR, non-VF censored) defined as a viral load <50 HIV-1 RNA copies/mL (Overall, naïve ENF): 66 (55.9) % | Change versus baseline in log10 viral load (NC = F, non-VF censored), Mean (SE) (Overall, no/non-naïve ENF): −1.67 (0.071) log10 HIV-1 RNA copies/mL | Change versus baseline in log10 viral load (NC = F, non-VF censored), Mean (SE) [3]: −1.12 (0.293) log10 HIV-1 RNA copies/mL | Virologic response rate (TLOVR, non-VF censored) defined as a decrease ≧1.0 log10 in plasma viral load versus baseline [3]: 12 (48.0) % | Virologic response rate (TLOVR, non-VF censored) defined as a viral load <50 HIV-1 RNA copies/mL [3]: 7 (28.0) % | Change versus baseline in log10 viral load (NC = F, non-VF censored), Mean (SE) [4]: −2.50 (0.276) log10 HIV-1 RNA copies/mL | Virologic response rate (TLOVR, non-VF censored) defined as a decrease ≧1.0 log10 in plasma viral load versus baseline [4]: 7 (100) % | Virologic response rate (TLOVR, non-VF censored) defined as a viral load <50 HIV-1 RNA copies/mL [4]: 6 (85.7) % | Change versus baseline in log10 viral load (NC = F, non-VF censored), Mean (SE) (R452S (p1/p6) at baseline, no/non-naïve ENF): −0.58 (0.312) log10 HIV-1 RNA copies/mL | Virologic response rate (TLOVR, non-VF censored) defined as a viral load <50 HIV-1 RNA copies/mL (S451T (p1/p6) at baseline, All subjects): 4 (18.2) % | Virologic response rate (TLOVR, non-VF censored) defined as a viral load <50 HIV-1 RNA copies/mL (S451T (p1/p6) at baseline, naïve ENF): 1 (12.5) % | virologic response (viral load ≦50 copies/mL) relative to overall response (week 24, E428G at baseline, univariate analysis, N=467): < 75 % of overall response
